Measurements published in ChEMBL document CHEMBL5465560, “Selectivity Literature for EUbOPEN Chemogenomic Library” (2024).

Experiments:
[1] = biological target: Phosphatidylinositol 4-kinase beta (Homo sapiens, UniProt Q9UBF8); experiment: Selectivity interaction (Kinase panel (literature)) EUB0001199aCl PI4KB; conditions: at 1 µM
[2] = biological target: Diacylglycerol kinase beta (Homo sapiens) (UniProt Q9Y6T7); experiment: Selectivity interaction (Kinase panel (literature)) EUB0001199aCl DGKB; conditions: at 1 µM
[3] = biological target: N-lysine methyltransferase SMYD2 (Homo sapiens) (UniProt Q9NRG4); conditions: at 10 µM
[4] = biological target: T1, Mitogen-activated protein kinase 15 (Homo sapiens) (UniProt Q8TD08); experiment: Selectivity interaction (KinomeScan (DiscoverX)) EUB0000229b MAPK15; conditions: at 10 µM
T1 sequence (whole entry): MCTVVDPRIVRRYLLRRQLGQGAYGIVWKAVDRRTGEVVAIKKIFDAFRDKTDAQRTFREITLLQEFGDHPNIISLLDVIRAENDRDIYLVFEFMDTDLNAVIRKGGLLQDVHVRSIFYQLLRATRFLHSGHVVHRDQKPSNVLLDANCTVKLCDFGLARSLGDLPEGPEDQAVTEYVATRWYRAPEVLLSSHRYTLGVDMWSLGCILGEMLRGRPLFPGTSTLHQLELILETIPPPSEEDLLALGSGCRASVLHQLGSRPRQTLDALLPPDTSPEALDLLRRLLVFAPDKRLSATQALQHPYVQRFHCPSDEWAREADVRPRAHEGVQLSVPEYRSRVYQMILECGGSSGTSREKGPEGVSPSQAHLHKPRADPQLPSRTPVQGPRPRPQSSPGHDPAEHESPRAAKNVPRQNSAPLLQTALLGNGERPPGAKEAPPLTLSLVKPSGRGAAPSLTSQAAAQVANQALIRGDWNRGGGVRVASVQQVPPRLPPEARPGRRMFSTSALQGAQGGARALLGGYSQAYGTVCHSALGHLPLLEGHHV

[5] = biological target: Tyrosine-protein kinase Lyn (Homo sapiens, UniProt P07948); experiment: Selectivity interaction (KinomeScan (DiscoverX)) EUB0000092b LYN; conditions: at 10 µM
[6] = biological target: Calcium/calmodulin-dependent protein kinase type II subunit gamma (Homo sapiens) (UniProt Q13555); experiment: Selectivity interaction (KinomeScan (DiscoverX)) EUB0000045b CAMK2G
[7] = biological target: Dual specificity mitogen-activated protein kinase kinase 1 (Homo sapiens, UniProt Q02750); experiment: Selectivity interaction (KinomeScan (DiscoverX)) EUB0000045b MAP2K1
[8] = biological target: Ephrin type-A receptor 2 (Homo sapiens) (UniProt P29317); experiment: Selectivity interaction (KinomeScan (DiscoverX)) EUB0000618a EPHA2; conditions: at 10 µM
[9] = biological target: Tyrosine-protein kinase JAK2 (Homo sapiens, UniProt O60674); conditions: at 10 µM
[10] = biological target: T2, Tyrosine-protein kinase Tec (Homo sapiens) (UniProt P42680); conditions: at 10 µM
T2 sequence (whole entry): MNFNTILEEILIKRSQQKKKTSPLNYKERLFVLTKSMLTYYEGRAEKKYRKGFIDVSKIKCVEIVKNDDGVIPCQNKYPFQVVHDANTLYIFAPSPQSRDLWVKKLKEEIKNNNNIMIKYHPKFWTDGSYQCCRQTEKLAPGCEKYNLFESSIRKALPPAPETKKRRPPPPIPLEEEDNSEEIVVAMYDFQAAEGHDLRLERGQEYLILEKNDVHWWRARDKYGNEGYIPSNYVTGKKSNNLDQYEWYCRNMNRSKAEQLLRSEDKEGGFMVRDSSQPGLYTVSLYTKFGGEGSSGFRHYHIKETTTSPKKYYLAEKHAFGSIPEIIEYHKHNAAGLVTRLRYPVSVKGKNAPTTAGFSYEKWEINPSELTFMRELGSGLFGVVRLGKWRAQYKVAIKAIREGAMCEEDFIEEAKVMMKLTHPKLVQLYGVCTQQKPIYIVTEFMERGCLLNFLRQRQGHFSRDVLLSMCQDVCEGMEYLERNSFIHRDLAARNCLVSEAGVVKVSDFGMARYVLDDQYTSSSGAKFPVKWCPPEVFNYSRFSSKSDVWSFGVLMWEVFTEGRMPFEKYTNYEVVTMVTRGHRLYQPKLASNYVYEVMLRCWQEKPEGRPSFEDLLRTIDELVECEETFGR

[11] = biological target: Serine/threonine-protein kinase B-raf (Homo sapiens) (UniProt P15056); experiment: Selectivity interaction (ActivX KiNativ screen (ex vivo kinase selectivity in human PBMCs)) EUB0001619a BRAF; assay type: cell-based; conditions: PBMC, at 1 µM
[12] = biological target: Inositol-tetrakisphosphate 1-kinase (Homo sapiens) (UniProt Q13572); experiment: Selectivity interaction (ActivX KiNativ screen (ex vivo kinase selectivity in human PBMCs)) EUB0001619a ITPK1; assay type: cell-based; conditions: PBMC, at 1 µM
Activated CDC42 kinase 1 = Activated CDC42 kinase 1 (Homo sapiens, UniProt Q07912); experiment: Selectivity interaction (KinomeScan (DiscoverX)) EUB0000655a TNK2; conditions: at 10 µM
[13] = biological target: DNA (cytosine-5)-methyltransferase 1 (Homo sapiens) (UniProt P26358); experiment: Selectivity interaction (Methyltransferase screen (radiometric assays, panel of 8 PRMTs, 21 protein lysine methyltransferases, 3 DNA methyltransferases, and one RNA methyltransferase)) EUB0000271b DNMT1
[14] = biological target: Cyclin-dependent kinase 2/cyclin E1 (Homo sapiens) (UniProt P24864+P24941); experiment: (§1) Selectivity interaction (ProQinase) EUB0000171b CDK2; assay type: protein-complex assay
[15] = biological target: CDK2/Cyclin A2 (Homo sapiens) (UniProt P24941+P20248); experiment: as §1; assay type: protein-complex assay

Dual specificity mitogen-activated protein kinase kinase 1, sequence (Q02750 whole entry): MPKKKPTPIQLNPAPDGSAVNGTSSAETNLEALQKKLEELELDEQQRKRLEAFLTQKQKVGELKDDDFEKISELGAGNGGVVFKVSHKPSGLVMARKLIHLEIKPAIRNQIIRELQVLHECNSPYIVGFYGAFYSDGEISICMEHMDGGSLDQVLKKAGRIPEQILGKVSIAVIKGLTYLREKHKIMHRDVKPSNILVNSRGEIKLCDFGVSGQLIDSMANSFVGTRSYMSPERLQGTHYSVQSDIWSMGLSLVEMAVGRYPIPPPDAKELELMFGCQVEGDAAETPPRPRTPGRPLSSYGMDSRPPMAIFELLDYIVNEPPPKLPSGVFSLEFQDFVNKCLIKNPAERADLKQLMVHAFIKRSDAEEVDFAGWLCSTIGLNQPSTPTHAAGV
DNA (cytosine-5)-methyltransferase 1 (Homo sapiens), sequence (P26358 whole entry): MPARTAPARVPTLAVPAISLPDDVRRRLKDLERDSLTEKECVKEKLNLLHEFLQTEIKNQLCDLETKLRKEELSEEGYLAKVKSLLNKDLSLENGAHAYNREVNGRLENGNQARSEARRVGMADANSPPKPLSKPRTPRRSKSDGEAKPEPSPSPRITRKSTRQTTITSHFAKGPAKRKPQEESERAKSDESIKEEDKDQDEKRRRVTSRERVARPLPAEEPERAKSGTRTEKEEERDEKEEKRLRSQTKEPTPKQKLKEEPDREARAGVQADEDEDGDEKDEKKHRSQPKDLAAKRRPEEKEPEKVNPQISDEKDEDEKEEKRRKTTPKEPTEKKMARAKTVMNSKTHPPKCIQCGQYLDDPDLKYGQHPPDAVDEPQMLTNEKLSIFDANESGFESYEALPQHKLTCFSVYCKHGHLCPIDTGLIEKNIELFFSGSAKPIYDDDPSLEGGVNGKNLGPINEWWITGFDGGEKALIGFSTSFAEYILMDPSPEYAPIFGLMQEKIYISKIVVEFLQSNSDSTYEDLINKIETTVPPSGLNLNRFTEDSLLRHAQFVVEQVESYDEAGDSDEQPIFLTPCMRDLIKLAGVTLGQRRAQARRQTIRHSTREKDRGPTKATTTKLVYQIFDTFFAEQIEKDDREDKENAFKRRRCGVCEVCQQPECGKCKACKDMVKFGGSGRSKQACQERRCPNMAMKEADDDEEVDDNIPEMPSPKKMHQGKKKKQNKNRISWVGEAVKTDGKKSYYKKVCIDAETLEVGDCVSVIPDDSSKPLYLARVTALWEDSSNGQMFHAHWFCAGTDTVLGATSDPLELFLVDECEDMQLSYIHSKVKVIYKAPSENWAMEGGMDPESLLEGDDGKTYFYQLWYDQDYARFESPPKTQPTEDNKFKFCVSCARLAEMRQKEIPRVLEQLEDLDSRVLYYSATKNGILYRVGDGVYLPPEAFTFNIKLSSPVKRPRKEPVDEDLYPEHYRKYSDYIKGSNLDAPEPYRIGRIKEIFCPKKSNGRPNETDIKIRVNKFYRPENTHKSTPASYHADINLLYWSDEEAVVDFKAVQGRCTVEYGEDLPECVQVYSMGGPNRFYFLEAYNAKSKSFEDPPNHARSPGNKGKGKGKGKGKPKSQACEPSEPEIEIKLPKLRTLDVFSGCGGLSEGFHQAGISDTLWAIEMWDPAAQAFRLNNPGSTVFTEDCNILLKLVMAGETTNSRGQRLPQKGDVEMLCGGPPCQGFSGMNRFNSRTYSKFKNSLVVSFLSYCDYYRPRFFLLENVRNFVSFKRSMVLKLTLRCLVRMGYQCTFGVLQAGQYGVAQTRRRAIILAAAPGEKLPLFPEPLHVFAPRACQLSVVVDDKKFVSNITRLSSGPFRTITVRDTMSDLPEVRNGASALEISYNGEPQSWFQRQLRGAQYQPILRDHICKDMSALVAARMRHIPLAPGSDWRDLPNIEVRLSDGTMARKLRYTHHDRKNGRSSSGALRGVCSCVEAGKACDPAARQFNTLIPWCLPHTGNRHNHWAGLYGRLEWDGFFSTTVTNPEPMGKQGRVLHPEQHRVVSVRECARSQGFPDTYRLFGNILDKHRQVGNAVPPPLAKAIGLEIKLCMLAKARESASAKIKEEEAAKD
Calcium/calmodulin-dependent protein kinase type II subunit gamma (Homo sapiens), sequence (Q13555 whole entry): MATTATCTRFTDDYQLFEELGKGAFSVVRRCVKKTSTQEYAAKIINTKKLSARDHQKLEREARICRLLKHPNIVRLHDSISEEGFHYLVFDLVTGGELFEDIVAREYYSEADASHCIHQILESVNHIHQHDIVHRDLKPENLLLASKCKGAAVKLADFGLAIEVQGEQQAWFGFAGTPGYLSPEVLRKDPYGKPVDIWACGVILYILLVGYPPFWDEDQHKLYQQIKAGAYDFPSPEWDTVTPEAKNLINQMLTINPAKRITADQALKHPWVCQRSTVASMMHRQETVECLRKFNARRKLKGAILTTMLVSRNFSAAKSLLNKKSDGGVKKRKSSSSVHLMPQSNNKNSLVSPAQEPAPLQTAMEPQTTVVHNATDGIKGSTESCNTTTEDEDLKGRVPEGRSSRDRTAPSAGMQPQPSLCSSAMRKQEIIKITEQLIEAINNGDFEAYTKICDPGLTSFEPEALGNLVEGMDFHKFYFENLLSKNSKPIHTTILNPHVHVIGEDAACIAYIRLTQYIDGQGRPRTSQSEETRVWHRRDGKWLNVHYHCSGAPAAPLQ
Activated CDC42 kinase 1, sequence (Q07912 whole entry, looked up): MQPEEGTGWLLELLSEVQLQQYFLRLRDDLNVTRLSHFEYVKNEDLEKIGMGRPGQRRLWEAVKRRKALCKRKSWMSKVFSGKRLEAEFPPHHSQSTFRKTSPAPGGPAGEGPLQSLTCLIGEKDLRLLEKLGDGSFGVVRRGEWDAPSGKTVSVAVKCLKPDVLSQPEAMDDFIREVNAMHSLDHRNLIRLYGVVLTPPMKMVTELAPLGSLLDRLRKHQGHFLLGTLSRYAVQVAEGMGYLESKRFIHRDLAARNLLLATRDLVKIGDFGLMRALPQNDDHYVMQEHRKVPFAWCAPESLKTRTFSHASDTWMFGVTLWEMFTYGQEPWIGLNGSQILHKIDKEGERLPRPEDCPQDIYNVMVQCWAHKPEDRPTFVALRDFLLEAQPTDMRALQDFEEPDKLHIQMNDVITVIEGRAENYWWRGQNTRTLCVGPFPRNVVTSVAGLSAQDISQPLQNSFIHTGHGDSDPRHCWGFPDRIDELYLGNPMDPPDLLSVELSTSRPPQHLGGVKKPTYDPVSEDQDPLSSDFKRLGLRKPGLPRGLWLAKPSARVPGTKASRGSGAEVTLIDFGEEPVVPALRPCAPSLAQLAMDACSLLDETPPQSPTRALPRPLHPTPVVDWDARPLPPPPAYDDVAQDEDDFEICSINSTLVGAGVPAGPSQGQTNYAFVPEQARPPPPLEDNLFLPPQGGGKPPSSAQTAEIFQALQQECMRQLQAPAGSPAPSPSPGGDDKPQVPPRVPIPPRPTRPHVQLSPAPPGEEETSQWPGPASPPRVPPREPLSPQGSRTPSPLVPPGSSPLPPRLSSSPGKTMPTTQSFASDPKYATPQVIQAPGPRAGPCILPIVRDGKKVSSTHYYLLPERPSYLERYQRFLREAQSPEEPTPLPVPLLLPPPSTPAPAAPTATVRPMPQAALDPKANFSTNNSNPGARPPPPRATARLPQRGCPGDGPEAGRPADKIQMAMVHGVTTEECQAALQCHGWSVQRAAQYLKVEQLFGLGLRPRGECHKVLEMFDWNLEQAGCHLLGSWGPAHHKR
Serine/threonine-protein kinase B-raf (Homo sapiens), sequence (P15056 whole entry): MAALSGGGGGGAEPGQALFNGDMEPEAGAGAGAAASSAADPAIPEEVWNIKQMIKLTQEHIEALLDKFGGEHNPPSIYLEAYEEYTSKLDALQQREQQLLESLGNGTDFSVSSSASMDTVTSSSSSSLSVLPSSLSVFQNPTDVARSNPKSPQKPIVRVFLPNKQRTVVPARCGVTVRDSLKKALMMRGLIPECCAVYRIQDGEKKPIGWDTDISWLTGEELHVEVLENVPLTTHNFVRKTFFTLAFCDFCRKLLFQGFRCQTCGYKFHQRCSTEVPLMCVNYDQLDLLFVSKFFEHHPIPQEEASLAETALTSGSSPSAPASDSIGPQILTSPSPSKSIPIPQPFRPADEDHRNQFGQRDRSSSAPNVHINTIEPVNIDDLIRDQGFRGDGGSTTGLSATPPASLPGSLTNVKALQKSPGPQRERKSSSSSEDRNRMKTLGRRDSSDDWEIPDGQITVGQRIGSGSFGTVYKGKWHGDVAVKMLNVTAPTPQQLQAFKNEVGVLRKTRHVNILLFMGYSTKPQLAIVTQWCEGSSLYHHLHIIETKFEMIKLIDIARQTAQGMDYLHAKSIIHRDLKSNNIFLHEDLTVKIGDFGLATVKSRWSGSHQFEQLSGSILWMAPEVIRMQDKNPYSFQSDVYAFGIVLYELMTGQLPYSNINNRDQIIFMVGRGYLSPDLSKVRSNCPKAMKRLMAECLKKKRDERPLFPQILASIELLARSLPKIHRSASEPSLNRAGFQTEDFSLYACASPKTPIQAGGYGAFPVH
Tyrosine-protein kinase Lyn, sequence (P07948 2-512 limits assumed): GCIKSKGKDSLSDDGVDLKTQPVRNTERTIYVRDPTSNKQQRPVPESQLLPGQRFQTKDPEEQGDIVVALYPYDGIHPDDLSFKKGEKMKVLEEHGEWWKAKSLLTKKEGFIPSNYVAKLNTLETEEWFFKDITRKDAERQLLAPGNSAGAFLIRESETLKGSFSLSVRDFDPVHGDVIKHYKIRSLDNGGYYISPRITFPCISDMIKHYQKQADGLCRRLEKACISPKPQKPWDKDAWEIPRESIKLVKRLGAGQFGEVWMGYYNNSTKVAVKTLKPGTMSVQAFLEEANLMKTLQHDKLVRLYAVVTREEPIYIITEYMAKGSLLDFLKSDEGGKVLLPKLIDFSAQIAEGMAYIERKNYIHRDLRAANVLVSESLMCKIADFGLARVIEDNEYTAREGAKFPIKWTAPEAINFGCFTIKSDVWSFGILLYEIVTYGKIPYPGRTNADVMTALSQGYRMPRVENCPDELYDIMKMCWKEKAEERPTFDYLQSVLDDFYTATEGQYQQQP

## CN1Cc2nccc(-c3cn(C)nc3-c3ccc(F)cc3)c2C1=O
[1]
  % of inhibition: -3%
[2]
  % of inhibition: -9%

## CNCCN1CCC(c2cc(CN(C)C(=O)c3cccc(Oc4ccccc4)c3)ccn2)CC1
[3]
  % activity: > 90%

## COc1cc(N(C)c2ccnc3ccc(C(F)(F)F)cc23)cc(OC)c1OC
[4]
  % binding: 100%

## CCC(=O)N1CCN(c2ccc(-n3c(=O)ccc4cnc5ccc(-c6cnc7ccccc7c6)cc5c43)cc2C(F)(F)F)CC1
[5]
  % of control: 79%

## C=CC(=O)Nc1cc(-n2c(=O)ccc3cnc4ccc(-c5ccc(NS(C)(=O)=O)cc5)cc4c32)ccc1C
[6]; at 1 µM
  % of control: 100%
[6]; at 10 µM
  % of control: 96%
[7]; at 1 µM
  % of control: 100%
[7]; at 10 µM
  % of control: 65%

## O[C@H]1CC[C@H](Nc2ncc3nc(Nc4c(F)cc(F)cc4F)n([C@H]4CCOC4)c3n2)CC1
[8]
  % of control: 99%

## Cc1cc([C@@H](C)Nc2ccccc2C(=O)O)c2nc(N3CCOCC3)cc(=O)n2c1 [AZD-6482]
[9]
  % of control: 62%
[10]
  % of control: 91%

## N#Cc1cccc(-c2c[nH]c3ncnc(N4CCOCC4)c23)c1
[11]
  % of inhibition: -1%
[12]
  % of inhibition: -28%

## CN(C)CCOc1ccc(-c2nc(-c3ccncc3)c(-c3ccc4c(c3)CC/C4=N\O)[nH]2)cc1
Activated CDC42 kinase 1
  % of control: 100%

## Cc1cc(C)cc([C@@H]2c3cc(C)ccc3NC(=O)CN2C(=O)c2ccc(Br)s2)c1
[13]; at 1 µM
  % of activity: 98.3%
[13]; at 10 µM
  % of activity: 97.7%

## C=CC(=O)Nc1cccc(C(=O)Nc2ccc(Nc3cc(-c4[nH]c(SC)nc4C)ccn3)cc2)c1
[14]; at 1 µM
  % of control: 88%
[14]; at 5 µM
  % of control: 62%
[15]; at 1 µM
  % of control: 78%
[15]; at 5 µM
  % of control: 56%
